Measurements published in patent EP0134302A1, “Pharmaceutical compositions for treating resistant bacteria including anaerobes” (Bristol-Myers Company, priority 1983, dated 1985).
In brackets after ≈: the same amount, converted by molar mass. Several values for one entry are separate records, joined by “and”; a condition that tells them apart may be missing. Equal entries are not always repeated. Where two headings read alike, the source gives them in different places.

How the values were obtained:
S. aureus = experiment: microbe, parasite or virus in culture; type: cell-based
Enterobacter aerogenes = experiment: microbe, parasite or virus in culture; type: cell-based; conditions: Klebsiella aerogenes
Enterobacter cloacae = experiment: microbe, parasite or virus in culture; type: cell-based
C. freundii = experiment: microbe, parasite or virus in culture; type: cell-based
Serratia marcescens = experiment: microbe, parasite or virus in culture; type: cell-based
P. aeruginosa = experiment: microbe, parasite or virus in culture; type: cell-based; conditions: Pseudomonas aeruginosa
Bacteroides fragilis = experiment: microbe, parasite or virus in culture; type: cell-based
Clostridium perfringens = experiment: microbe, parasite or virus in culture; type: cell-based
Morganella morganii = experiment: microbe, parasite or virus in culture; type: cell-based
Proteus vulgaris = experiment: microbe, parasite or virus in culture; type: cell-based
Providencia rettgeri = experiment: microbe, parasite or virus in culture; type: cell-based
Providencia stuartii = experiment: microbe, parasite or virus in culture; type: cell-based
[1] = Blood concentrations of BL-P 2013 after oral administration; type: in vivo; conditions: mice; oral administration of doses of 25 to 100 mg./kg. of body weight
B. fragilis = conditions: cited from earlier work
[2] = Table 1, C. perfringens, 3 strains (first group), geometric mean, 2 tests, BL-P 2013 as K salt
[3] = Table 1, C. perfringens, 3 strains (second group), geometric mean, 2 tests, BL-P 2013 as K salt
[4] = Table 1, C. perfringens, 8 strains, geometric mean, 2 tests, BL-P 2013 as K salt
[5] = Table 3, C. perfringens, 1 strain
[6] = Table 3, C. perfringens, 2 strains, geometric mean
[7] = Table 3, C. perfringens, 4 strains, geometric mean
[8] = Table 3, C. perfringens, 6 strains, geometric mean

Structure (SMILES)	MIC (S. aureus)	MIC (S. aureus; Staphylococcus aureus) [µg/mL]	MIC (P. aeruginosa) [µg/mL]	MIC (Clostridium perfringens; [2]) [µg/mL]	MIC (Clostridium perfringens; [3]) [µg/mL]	MIC (Clostridium perfringens; [4]) [µg/mL]	MIC (Clostridium perfringens; [5]) [µg/mL]	MIC (Clostridium perfringens; [6]) [µg/mL]	MIC (Clostridium perfringens; [7]) [µg/mL]	MIC (Clostridium perfringens; [8]) [µg/mL]	MIC (Proteus vulgaris) [µg/mL]	blood concentrations of BL-P 2013 [1]	also measured
C[C@]1(CCl)[C@H](C(=O)O)N2C(=O)C[C@H]2S1(=O)=O [BL-P 2013]	73 µg/mL and 96 µg/mL and 85 µg/mL	100 (≈ 374 µM)	> 125	> 125	89	> 120	> 32	> 32	27 (≈ 101 µM)	> 32	> 125	Operative blood concentrations	MIC (Enterobacter aerogenes): > 125 µg/mL; MIC (Enterobacter cloacae): > 125 µg/mL; MIC (C. freundii; Citrobacter freundii): > 125 µg/mL; MIC (Serratia marcescens): > 125 µg/mL; MIC (Bacteroides fragilis; Bacteroides fragilis): 21 µg/mL (≈ 78.4 µM); MIC (Morganella morganii): > 125 µg/mL; MIC (Providencia rettgeri): > 125 µg/mL; MIC (Providencia stuartii): > 125 µg/mL
CC1(C)[C@H](C(=O)O)N2C(=O)C[C@H]2S1(=O)=O [CP-45,899, Penicillanic acid-1,1-dioxide]	–	–	–	–	–	–	–	–	–	–	–	–	synergism with ampicillin against B. fragilis (B. fragilis; Fass, Abstract No. 605, 1980): highly synergistic
CC(C)(C)C(=O)OCOC(=O)[C@@H]1N2C(=O)C[C@H]2S(=O)(=O)[C@@]1(C)CCl	–	–	–	–	–	–	–	–	–	–	–	Operative blood concentrations	–
C[C@]1(CCl)[C@H](C(=O)OC2OC(=O)c3ccccc32)N2C(=O)C[C@H]2S1(=O)=O (stereo partly shown)	–	–	–	–	–	–	–	–	–	–	–	Operative blood concentrations	–
CC(C)(O/N=C(\C(=O)N[C@@H]1C(=O)N2C(C(=O)[O-])=C(C[n+]3ccccc3)CS[C@H]12)c1csc(N)n1)C(=O)O [Ceftazidime, reference compound]	8.6 µg/mL and 9.7 µg/mL	8 (≈ 14.6 µM)	8 (≈ 14.6 µM)	0.04	0.7	3.3	2 (≈ 3.66 µM)	5.7 (≈ 10.4 µM)	0.11 (≈ 0.201 µM)	0.1 (≈ 0.183 µM)	0.063 (≈ 0.115 µM)	–	MIC (C. freundii): 63 µg/mL (≈ 115 µM); susceptibility of Bacteroides fragilis strains (Bacteroides fragilis): resistant; activity against B. fragilis (B. fragilis; Wise et al. 1980): low activity
